Results: US20240342111A1, “ISOMER-SPECIFIC NEUROPROTECTIVE EFFECT OF NATURAL RESERVATROL” (priority 2021, published 2024)

Assays:
[1] = system: rat primary cortical neuron cultures; assay: NMDA excitotoxicity, viability by MTT assay; format: cell-based; conditions: then NMDA 500 μM for 5 minutes
Experimental: Cells were then exposed to excitotoxic NMDA (500 μM for 5 minutes) and viability was assessed using MTT assay after 24 hours. […] Rat cortical neurons (DIV 9) were treated with NMDA (50 μM for 5 minutes) and then with cis-RSV for 24 hours. Cells were then exposed to excitotoxic NMDA (500 μM for 5 minutes) and viability was assessed using MTT assay after 24 hours. […] Cell viability was assessed after 48 hours. […] Representative images (scale bar, 20 μm) for cortical neurons following neurite degeneration (MAP2—neurite marker, magenta and DAPI—nuclear marker, blue). […] Neurons were immunoassayed with anti-MAP2 antibody and quantified for neurite degeneration. The data represents mean±SEM for n=3 experiments with significance measured using Student's paired t-test.
Primary cortical neuron cultures were obtained from E18 Sprague Dawley rats' cortices, which were dissected in Hibernate E (BrainBits) and dissociated using the Neural Tissue Dissociation kit (Miltenyi Biotec). For this, minced cortices were incubated in a pre-warmed enzyme mix at 37° C. for 15 min; tissues were then triturated and strained using a 40 μm cell strainer. After washing and centrifugation, neurons were seeded in 50 μg/ml poly-D-Lysine (Sigma Aldrich) coated tissue culture plates. NBActive-1 medium (BrainBits) supplemented with 100 U/ml of Penicillin-Streptomycin (Life Technologies), 2 mM L-Glutamine (Life Technologies), and 1 X N21 supplement (R&D Systems) was used as culture medium. Control (AM4635), TyrRS (s443), PARP1 (s130207) siRNA for transfection were obtained from Invitrogen. […]
Rat cortical neurons (DIV 10-11) were exposed to different treatments after seeding 20,000 cells/well in 96-well plates. Cell viability was then assessed at 48 hours after the initial exposure to NMDA. […] The percentage of MTT reduced as measured by the difference between the absorbances at 570 nm read in a spectrophotometer (Spectramax 190R Molecular Devices, UK). The percentage of reduction of MTT was calculated comparing the difference of the absorbance at 570 of each sample. […]

Rat cortical neurons = assay: MPP+ toxicity (mitochondrial inhibition), cell viability; format: cell-based
TyrRS = assay: Immunostaining of neuronal TyrRS under neurotoxic agents (NMDA, MPP+); format: cell-based, rat; conditions: 50 μM in combination with 50 μM NMDA or 100 μM MPP+, 4 hours
PARP1 [2] = assay: Immunoblot for auto-PARylation of PARP1; format: cell-based, rat; conditions: 15 minutes
H3 = assay: Immunoblot for histone H3 acetylation (Ac-K9-H3, Ac-K56-H3); format: cell-based, rat; conditions: 15 minutes
RAD51 = assay: Immunoblot for RAD51 levels; format: cell-based, rat; conditions: 4 hours
pSer10-H3 = assay: Immunostaining of pSer10-H3 (ADP-ribosylation dependent DNA repair marker); format: cell-based, rat; conditions: pre-treated 50 μM 16 hours, then Aβ 50 nM 24 hours
Source text: Ac-K56-H3 is a marker of genomic stability, see Driscoll, R., Hudson, A. & Jackson, S. P. Yeast Rtt109 promotes genome stability by acetylating histone H3 on lysine 56. Science 315, 649-652, doi:10.1126/science.1135862 (2007), and DNA damage, see Tjeertes, J. V., Miller, K. M. & Jackson, S. P. Screen for DNA-damage-responsive histone modifications identifies H3K9Ac and H3K56Ac in human cells. EMBO J 28, 1878-1889, doi:10.1038/emboj.2009.119 (2009), and inhibition of PARP1 causes the downregulation of RAD51, see Hegan, D. C. et al. Inhibition of poly(ADP-ribose) polymerase down-regulates BRCA1 and RAD51 in a pathway mediated by E2F4 and p130. Proc Natl Acad Sci U S A 107, 2201-2206, doi:10.1073/pnas.0904783107 (2010), and induces neurotoxicity, see Diaz-Hernandez, J. I., Moncada, S., Bolanos, J. P. & Almeida, A. Poly(ADP-ribose) polymerase-1 protects neurons against apoptosis induced by oxidative stress. Cell Death Differ 14, 1211-1221, doi:10.1038/sj.cdd.4402117 (2007) and Midorikawa, R., Takei, Y. & Hirokawa, N. KIF4 motor regulates activity-dependent neuronal survival by suppressing PARP-1 enzymatic activity. Cell 125, 371-383, doi:10.1016/j.cell.2006.02.039 (2006). […] The western blot images of the protein levels of HPF1 was quantified using ImageJ.
Coverslips were then mounted using DAPI (4′,6-diamidino-2-phenylindole)-supplemented mounting medium, Prolong Gold Antifade (Invitrogen) imaged with Leica DMI6000 epifluorescent microscope at 63×magnification.

PARP1 [3] = assay: Auto-PARylation of PARP1 after siRNA knockdown of TyrRS; format: cell-based, rat; conditions: 15 minutes
8-oxo-2′-dG = assay: Quantification of 8-oxo-2′-dG (oxidation level of neuronal DNA); format: cell-based, rat; conditions: 50 μM, 16 hours
Source text: Although Aβ exacerbates neuronal DNA damage through an unknown mechanism, see Suberbielle, E. et al. Physiologic brain activity causes DNA double-strand breaks in neurons, with exacerbation by amyloid-beta. […] Elife 7, doi:ARTN e34334 10.7554/eLife.34334 (2018), and (see FIG. 7 at (b)). […] Mol Cell 65, 932-940 e936, doi:10.1016/j.molcel.2017.01.003 (2017), in a time-dependent manner (see FIG. 7 at (c)). […] Representative immunoblots and quantification for the auto-PARylation level of PARP1 after the siRNA knockdown of TyrRS.

GSK3β = assay: Immunoblot for inhibitory GSK3β phosphorylation; format: cell-based, rat; conditions: 16 hours
tau = assay: Immunostaining of phospho-tau (pSer404-tau); format: cell-based, rat; conditions: 25 μM, 16 hours

| SMILES | neuronal survival under NMDA excitotoxicity ([1]; higher dose (≥25 μM), 24 hours) | neuronal survival under NMDA excitotoxicity ([1]; low dose (≤10 μM), 24 hours) | neurotoxicity by itself (Rat cortical neurons; high dose 50 μM, no toxin) | neurotoxicity-mediated downregulation of neuronal TyrRS (TyrRS) | auto-PARylation of PARP1 (PARP1 [2]; higher dose ≥25 μM) | auto-PARylation of PARP1 (PARP1 [2]; low dose 5 μM) | acetylation level of H3 lysine 9 (Ac-K9-H3) (H3) | acetylation level of H3 lysine 56 (Ac-K56-H3) (H3) | RAD51 levels (RAD51; low dose 5 μM) | RAD51 levels (RAD51; ≥10 μM) | pSer10-H3 levels (pSer10-H3) | auto-PARylation of PARP1 after knockdown of TyrRS (PARP1 [3]; trans-RSV 5 μM) | levels of 8-oxo-dG (8-oxo-2′-dG) | GSK3β activity via inhibitory phosphorylation (pSer9) (GSK3β) | phosphorylation level of tau (p-tau, pSer404) (tau) | neuronal survival under NMDA excitotoxicity ([1]; cis-RSV for 24 hours) | protection against MPP+ toxicity (cell viability) (Rat cortical neurons; 10 μM MPP, pre-treatment 50 μM for 16 hours, viability after 48 hours) | auto-PARylation of PARP1 (PARP1 [2]; cis-RSV) | RAD51 levels (RAD51; cis-RSV 5-50 μM) | auto-PARylation of PARP1 after knockdown of TyrRS (PARP1 [3]; cis-RSV 25 μM) |
| --- | --- | --- | --- | --- | --- | --- | --- | --- | --- | --- | --- | --- | --- | --- | --- | --- | --- | --- | --- | --- |
| Oc1ccc(/C=C/c2cc(O)cc(O)c2)cc1 [trans-RSV, trans-resveratrol] | exacerbated the N-Methyl-D-aspartate (NMDA)-mediated excitotoxicity | evoked neuroprotective effects | neurotoxic | exacerbated the downregulation | downregulated the auto-PARylation of PARP1 | stimulated the auto-PARylation of PARP1 | downregulated the lysine 9 and 56 acetylation levels of H3 | downregulated the lysine 9 and 56 acetylation levels of H3 | upregulated it | downregulated RAD51 in a dose-dependent manner | upregulation | blunted after knockdown of TyrRS | upregulated the levels of 8-oxo-2′-deoxyguanosine (8-oxo-dG) | activated GSK3β by downregulating the levels of pSer9 | significantly upregulated the level of p-tau | – | – | – | – | – |
| Oc1ccc(/C=C\c2cc(O)cc(O)c2)cc1 [cis-RSV, cis-resveratrol] | – | – | – | protected against the downregulation of neuronal TyrRS | – | – | upregulated the acetylation levels of H3 lysine 9 (Ac-K9-H3) | – | – | – | reduced pSer10-H3 levels | – | downregulated both the protein levels of OGG1 and the levels of 8-oxo-dG | inhibited GSK3β through the upregulation of the inhibitory phosphorylation (pSer9) | significantly downregulated the phosphorylation level of tau (p-tau) | protected against excitotoxicity in a dose-dependent manner | protects against MPP toxicity | stimulated the auto-PARylation of PARP1 | upregulated it | blunted after knockdown of TyrRS |
